Experimental data published in US20210386750A1, “METHODS AND MATERIALS FOR TREATING CANCER” (Mayo Foundation for Medical Education and Research, priority 2018, published 2021).
“Also recorded” adds a separate entry of the source.

Assays:
OVCAR-8 cells = experiment: Clonogenic (colony formation) assay in OVCAR-8 cells; settings: for Sensitivity of BRCA1-depleted cells to the agent versus control luciferase siRNA cells: OVCAR-8, BRCA1 siRNAs, colony formation 8-10 days (FIG. 4A, 14, 22A); for Sensitization to the agent by NNMT overexpression: OVCAR-8 clones stably expressing Myc-DDK-NNMT versus empty vector, 8-10 days (FIG. 16, 24)
Protocol: A portion of the cells used in A and C were subjected to colony formation assays using olaparib, a PARP inhibitor (as a positive control for HR deficiency).
(A-C) OVCAR-8 and PEA1 cells were transfected with control luciferase (siLuc) or BRCA1 siRNAs. 48 hours later, the cells were trypsinized, immunoblotted for BRCA1 and HSP90 (bottom panels), and subjected to colony formation assays.
The cells were cultured for 8-10 days to allow colony formation.

PEA1 cells = experiment: Clonogenic (colony formation) assay in PEA1 cells; settings: PEA1, BRCA1 siRNAs, colony formation 8-10 days (FIG. 4B, 14, 22B)
Protocol: OVCAR-8 (A) and PEA1 (B) cells were transfected with control luciferase (Luc) or BRCA1 siRNAs. 48 hours later, the cells were trypsinized, plated in 6-well plates, and subjected to colony formation assays. The indicated concentrations of ceritinib was added 12 hours after plating.

[1] = tested on: HCT-116 colon cancer cells; experiment: Colony formation assay in HCT-116 colon cancer clones (empty vector or Myc-DDK-NNMT); type: cell-based; settings: HCT-116 Myc-NNMT clones #4, #8, #22 versus empty vector, 8-10 days, n=1 (FIG. 26)
Protocol: Clones of HCT-116 colon cancer cells stably transfected with empty vector (pcDNA3) or the Myc-DDK-NNMT expression plasmid (Myc-NNMT Clone #4, #8, #22) were plated as single cells, allowed to adhere for 12 hours, and then treated with ceritinib. […] Data are means±SEM from triplicate wells, n=1 experiment.
Clonogenic assays were performed as described elsewhere (see, e.g., Wagner et al., Mol. Pharmacol., 76:208-14 (2009)).

## O=C(Oc1cccc(F)c1OC(=O)c1cccc(O)c1)c1cccc(O)c1 [WZB117]
OVCAR-8 cells
  Sensitivity of BRCA1-depleted cells to the agent versus control luciferase siRNA cells: sensitized
PEA1 cells
  Sensitivity of BRCA1-depleted cells to the agent versus control luciferase siRNA cells: sensitized

## Cc1cc(Nc2ncc(Cl)c(Nc3ccccc3S(=O)(=O)C(C)C)n2)c(OC(C)C)cc1C1CCNCC1 [ceritinib]
OVCAR-8 cells
  Sensitivity of BRCA1-depleted cells to the agent versus control luciferase siRNA cells: sensitizes
  Sensitization to the agent by NNMT overexpression: sensitizes
PEA1 cells
  Sensitivity of BRCA1-depleted cells to the agent versus control luciferase siRNA cells: sensitizes
[1]
  Sensitization to the agent by NNMT overexpression: sensitizes

## O=C(c1cc(Cc2n[nH]c(=O)c3ccccc23)ccc1F)N1CCN(C(=O)C2CC2)CC1 [olaparib]
OVCAR-8 cells; OVCAR-8, BRCA2 or RAD51 siRNAs (FIG. 12B, 12D, 15)
  Sensitization to the agent by depletion of BRCA2 or RAD51: increased sensitivity; also recorded: did sensitize

## CN(C)c1cc(NC(=O)CNC(C)(C)C)c(O)c2c1C[C@H]1C[C@H]3[C@H](N(C)C)C(O)=C(C(N)=O)C(=O)[C@@]3(O)C(O)=C1C2=O [tigecycline]
OVCAR-8 cells
  Sensitivity of BRCA1-depleted cells to the agent versus control luciferase siRNA cells: sensitized
  Sensitization to the agent by NNMT overexpression: sensitizes
PEA1 cells
  Sensitivity of BRCA1-depleted cells to the agent versus control luciferase siRNA cells: sensitized
